Experimental data from patent publication US12594267B2, “Capsid inhibitors for the treatment of HIV” (Gilead Sciences, Inc., priority 2018, dated 2026).
Read-outs that look alike come from different tables or passages of the source.

Experiment: PK after subcutaneous administration of solutions in dogs
Type: in vivo, Beagle dog
Conditions: dog, plasma, sc, dog, mean ± SD, n=3; for concentration at 56 d: read-out: C56d
Protocol: Formulations containing the compound of Formula (Ia) were prepared as aqueous solutions or oral formulations and administered subcutaneously to rats, dogs, cynomolgus monkey, and/or rhesus monkey.
A solution of the compound of Formula (Ia) in 10% ethanol, 13% water, and 77% PEG 200 (400 mg/mL) was prepared. The solution was administered subcutaneously to dogs at a dose of 12 mg/kg and rats at a dose of 50 mg/kg and the pharmacokinetic (PK) profile was determined. […] In both species, plasma concentrations of the compound of Formula (Ia) were maintained above the target trough concentration of 20 nM (corresponding to an IQ of 5) for at least 84 days (12 weeks).
A solution of the compound of Formula (Ia) in 15% water and 85.0 PEG 300 (400 mg/mL) was prepared. The solution was administered subcutaneously to male beagle dogs at a dose level of 12 mg/kg and dose volume of […] and the pharmacokinetic (PK) profile was determined.
A solution of the compound of Formula (a) sodium salt in water and 300 (300 mg/mL) was prepared that contained 22.6% water/50% PEG 300/1.1% NaOH/26.3% Formula (Ia). The solution was administered subcutaneously to male beagle dogs at a dose level of 12 mg/kg and dose volume of […] and the pharmacokinetic (PK) profile was determined.
A 300 mg/ml solution of a compound of Formula (Ia) having 9.8 w/w % water, 65.0 w/w % PEG 300, and 25.2 w/w % of the compound of Formula (Ia) was prepared. The solution was administered subcutaneously to rats at a dose of 50 mg/kg and to dogs at a dose of 12 mg/kg and the pharmacokinetic (PK) profile was determined. […] In the rat, plasma concentrations of the compound of Formula (Ia) were maintained above the target trough concentration of 20 nM for at least 168 days (24 weeks). In the dog, plasma concentrations of the compound of Formula (Ia) were maintained above the target trough concentration of 20 nM for at least 84 days (12 weeks).
(§1) A 150 mg/ml solution of a compound of Formula (Ia) having 27.92 w/w % water, 58.04 w/w % PEG 300, 13.47 w/w % of a compound of Formula (Ia), and 1.1 w/w % NaOH was prepared. The solution was administered subcutaneously to rats at a dose of 50 mg/kg and to dogs at a dose of 12 mg/kg and the pharmacokinetic (PK) profile was determined. […] In the rat, plasma concentrations of the compound of Formula (Ia) were maintained above the target trough concentration of 20 nM for at least 126 days (18 weeks). In the dog, plasma concentrations of the compound of Formula (Ia) were maintained above the target trough concentration of 20 nM for at least 56 days (8 weeks).
as §1, with “300” for “150”, “23.2” for “27.92”, “50.0” for “58.04”, “25.7” for “13.47”
A 50 mg/ml solution of a compound of Formula (Ia) having 30.07 w/w % water, 64.40 w/w % PEG 300, 4.68 w/w % of a sodium salt of the compound of Formula (Ia), and 0.85 w/w % poloxamer 188 was prepared. The solution was administered subcutaneously to rats at a dose of 50 mg/kg and to dogs at a dose of 6 mg/kg and the pharmacokinetic (PK) profile was determined. […] In the rat, plasma concentrations of the compound of Formula (Ia) were maintained above the target trough concentration of 20 nM for at least 28 days (4 weeks). In the dog, plasma concentrations of the compound of Formula (Ia) were maintained above the target trough concentration of 20 nM for at least 14 days (2 weeks). […]

[1] = Beagle, 6 mg/kg, SC 6 mg/kg, 150 mg/mL solution (w/w %: 26.6 water, 56.97 PEG 300, 13.39 Formula (Ia), 0.57 NaOH, 2.49 poloxamer 188)
[2] = beagle, 6 mg/kg, SC 6 mg/kg, 300 mg/mL solution (w/w %: 21.97 water, 47.05 PEG 300, 25.21 Formula (Ia), 1.08 NaOH, 4.69 poloxamer 188)
[3] = beagle, 12 mg/kg, SC 12 mg/kg, 150 mg/mL solution (w/w %: 27.92 water, 58.04 PEG 300, 13.47 Formula (Ia), 1.1 NaOH)
[4] = beagle, 12 mg/kg, SC 12 mg/kg, 300 mg/mL solution (w/w %: 9.8 water, 65.0 PEG 300, 25.2 Formula (Ia))
[5] = beagle, 12 mg/kg, SC 12 mg/kg, 300 mg/mL solution (w/w %: 23.2 water, 50.0 PEG 300, 25.7 Formula (Ia), 1.1 NaOH)

**Q.** What does the source list for CC(C)(C#Cc1ccc(-c2ccc(Cl)c3c(NS(C)(=O)=O)nn(CC(F)(F)F)c23)c([C@H](Cc2cc(F)cc(F)c2)NC(=O)Cn2nc(C(F)(F)F)c3c2C(F)(F)[C@@H]2C[C@H]32)n1)S(C)(=O)=O [Formula (Ia), N—((S)-1-(3-(4-chloro-3-(methylsulfonamido)-1-(2,2,2-trifluoroethyl)-1H-indazol-7-yl)-6-(3-methyl-3-(methylsulfonyl)but-1-yn-1-yl)pyridin-2-yl)-2-(3,5-difluorophenyl)ethyl)-2-((3bS,4aR)-5,5-difluoro-3-(trifluoromethyl)-3b,4,4a,5-tetrahydro-1H-cyclopropa[3,4]cyclopenta[1,2-c]pyrazol-1-yl)acetamide]?
**A.** AUC(0-t) (Beagle, 6 mg/kg, SC 6 mg/kg, 100 mg/mL solution (w/w %: 28.36 water, 60.73 PEG 300, 9.23 sodium salt of Formula (Ia), 1.68 poloxamer 188), read-out: AUC0-24h): 6.05 ± 3.43 µM·h; AUC(0-t) (Beagle, 6 mg/kg, SC 6 mg/kg, 125 mg/mL solution (w/w %: 27.51 water, 58.92 PEG 300, 11.48 sodium salt of Formula (Ia), 2.09 poloxamer 188), read-out: AUC0-24h): 4.71 ± 1.51 µM·h; AUC(0-t) (Beagle, 6 mg/kg, SC 6 mg/kg, 125 mg/mL solution (w/w %: 27.51 water, 58.92 PEG 300, 11.48 sodium salt of Formula (Ia), 2.09 poloxamer 188), read-out: AUC0-14d): 90.3 ± 3.5 µM·h; Cmax [1]: 101 ± 44 nM; Tmax [1]: 10 ± 15.6 days; AUC(0-t) (Beagle, 6 mg/kg, SC 6 mg/kg, 150 mg/mL solution (w/w %: 26.6 water, 56.97 PEG 300, 13.39 Formula (Ia), 0.57 NaOH, 2.49 poloxamer 188), read-out: AUC0-56d): 69 ± 13.9 µM·h; AUC(0-t) (Beagle, 6 mg/kg, SC 6 mg/kg, 150 mg/mL solution (w/w %: 26.6 water, 56.97 PEG 300, 13.39 Formula (Ia), 0.57 NaOH, 2.49 poloxamer 188), read-out: AUC0-84d): 76.6 ± 8.5 µM·h; concentration at 56 d [1]: 24.9 nM; AUC(0-t) (beagle, 6 mg/kg, SC 6 mg/kg, 50 mg/mL solution (w/w %: 30.07 water, 64.40 PEG 300, 4.68 sodium salt of Formula (Ia), 0.85 poloxamer 188), read-out: AUC0-24h): 14.7 ± 4.4 µM·h; concentration at 14 d (beagle, 6 mg/kg, SC 6 mg/kg, 50 mg/mL solution (w/w %: 30.07 water, 64.40 PEG 300, 4.68 sodium salt of Formula (Ia), 0.85 poloxamer 188), read-out: C14d): 37.2 ± 13.9 nM; AUC(0-t) (beagle, 6 mg/kg, SC 6 mg/kg, 75 mg/mL solution (w/w %: 29.21 water, 62.55 PEG 300, 6.97 sodium salt of Formula (Ia), 1.68 poloxamer 188), read-out: AUC0-24h): 5.88 ± 1.95 µM·h; AUC(0-t) (beagle, 6 mg/kg, SC 6 mg/kg, 75 mg/mL solution (w/w %: 29.21 water, 62.55 PEG 300, 6.97 sodium salt of Formula (Ia), 1.68 poloxamer 188), read-out: AUC0-28d): 101 ± 11 µM·h; concentration at 21 d (beagle, 6 mg/kg, SC 6 mg/kg, 75 mg/mL solution (w/w %: 29.21 water, 62.55 PEG 300, 6.97 sodium salt of Formula (Ia), 1.68 poloxamer 188), read-out: C21d): 40 ± 24 nM; Cmax [2]: 69 ± 22 nM; AUC(0-t) (beagle, 6 mg/kg, SC 6 mg/kg, 300 mg/mL solution (w/w %: 21.97 water, 47.05 PEG 300, 25.21 Formula (Ia), 1.08 NaOH, 4.69 poloxamer 188), read-out: AUC0-56d): 55.4 ± 20.8 µM·h; concentration at 56 d [2]: 30.4 ± 7.2 nM; Cmax [3]: 312 ± 93 nM; Tmax [3]: 16.3 ± 4.04 days; concentration at 56 d [3]: 22.9 ± 5.6 nM; Cmax [4]: 133 ± 10 nM; Tmax [4]: 14 days; AUC(0-t) (beagle, 12 mg/kg, SC 12 mg/kg, 300 mg/mL solution (w/w %: 9.8 water, 65.0 PEG 300, 25.2 Formula (Ia)), read-out: AUC0-126d): 139 ± 8 µM·h; concentration at 84 d (beagle, 12 mg/kg, SC 12 mg/kg, 300 mg/mL solution (w/w %: 9.8 water, 65.0 PEG 300, 25.2 Formula (Ia)), read-out: C84d): 21.7 ± 6.5 nM; Cmax [5]: 267 ± 176 nM; Tmax [5]: 12.3 ± 9.62 days; AUC(0-t) (beagle, 12 mg/kg, SC 12 mg/kg, 300 mg/mL solution (w/w %: 23.2 water, 50.0 PEG 300, 25.7 Formula (Ia), 1.1 NaOH), read-out: AUC0-56d): 166 ± 110 µM·h; concentration at 56 d [5]: 29.6 ± 30.8 nM; AUC(0-t) (beagle, 12 mg/kg, SC 12 mg/kg, 400 mg/mL solution in 10% ethanol, 13% water, 77% PEG 200, read-out: AUC0-84d): 89.6 ± 10.1 µM·h
